pEC50: −log10 of the molar value. Values belong to the compound of their own block, whether it stands above or below them.
Key:
[1] = target: Free fatty acid receptor 1 (Rattus norvegicus, UniProt Q8K3T4); assay: Agonist activity at rat GPR40 expressed in HEK293 cells assessed as increase in intracellular Ca2+ flux by Fluo-4-AM dye based FLIPR assay; assay type: functional, cell-based
[2] = target: T1, Free fatty acid receptor 1 (Homo sapiens, UniProt O14842); assay: Agonist activity at flag-tagged human GPR40 expressed in HEK293 cells assessed as increase in intracellular Ca2+ flux by FLIPR assay; assay type: functional, cell-based
[3] = target: T1, Free fatty acid receptor 1; assay: Agonist activity at human GPR40 expressed in CHO cells coexpressing NFAT BLA assessed as increase in intracellular Ca2+ flux by fluo-4-AM dye based FLIPR assay; assay type: functional, cell-based
[4] = Half life in human; assay type: ADME
Mus musculus = assay: Antidiabetic activity in po dosed albino Balb/c mouse assessed as reduction in plasma glucose AUC administered qd for 3 days measured on day 4 administered 60 mins prior to glucose challenge measured up to 60 mins post glucose challenge by intraperitoneal glucose tolerance test; assay type: functional
[5] = Oral bioavailability in dog; assay type: ADME, organism-based, Canis lupus familiaris; details: in vivo
[6] = Oral bioavailability in mouse; assay type: ADME, organism-based; details: in vivo
[7] = Oral bioavailability in rat; assay type: ADME, organism-based; details: in vivo
[8] = Half life in iv or po dosed mouse; assay type: ADME, organism-based; details: in vivo
[9] = Half life in iv or po dosed monkey; assay type: ADME, organism-based, Macaca mulatta; details: rhesus monkey, in vivo
[10] = Oral bioavailability in monkey; assay type: ADME, organism-based, Macaca mulatta; details: rhesus monkey, in vivo
[11] = Half life in iv or po dosed dog; assay type: ADME, organism-based, Canis lupus familiaris; details: in vivo
[12] = Half life in iv or po dosed rat; assay type: ADME, organism-based; details: in vivo
[13] = target: T1, Free fatty acid receptor 1; assay: Agonist activity at human GPR40 expressed in CHOK cells assessed as increase in intracellular Ca2+ flux by Fluo-4 based assay; assay type: functional, cell-based
[14] = target: T1, Free fatty acid receptor 1; assay: Agonist activity at human GPR40 expressed in HEK293 cells assessed as increase in intracellular Ca2+ flux by FLIPR assay relative to linoleic acid; assay type: functional, cell-based
Rattus norvegicus [15] = assay: Antidiabetic activity in po dosed Zucker fa/fa rat assessed as reduction in plasma glucose AUC administered 1 hr prior to glucose challenge measured up to 120 mins post glucose challenge by oral glucose tolerance test; assay type: functional
Rattus norvegicus [16] = assay: Antidiabetic activity in po dosed Zucker fa/fa rat assessed as reduction in plasma glucose AUC administered for 21 days measuredon day 21 administered 1 hr prior to glucose challenge measured up to 120 mins post glucose challenge by oral glucose tolerance test; assay type: functional
[17] = Antidiabetic activity in ZDF rat assessed as induction of glucose-stimulated insulin secretion; assay type: functional
[18] = target: T1, Free fatty acid receptor 1; assay: Agonist activity at full length recombinant human GPR40 expressed in CHOK1 cells assessed as intracellular IP3 accumulation by fluorescence assay; assay type: functional, cell-based, CHO-K1

Free fatty acid receptor 1 (Rattus norvegicus, UniProt Q8K3T4), sequence (Q8K3T4 whole entry): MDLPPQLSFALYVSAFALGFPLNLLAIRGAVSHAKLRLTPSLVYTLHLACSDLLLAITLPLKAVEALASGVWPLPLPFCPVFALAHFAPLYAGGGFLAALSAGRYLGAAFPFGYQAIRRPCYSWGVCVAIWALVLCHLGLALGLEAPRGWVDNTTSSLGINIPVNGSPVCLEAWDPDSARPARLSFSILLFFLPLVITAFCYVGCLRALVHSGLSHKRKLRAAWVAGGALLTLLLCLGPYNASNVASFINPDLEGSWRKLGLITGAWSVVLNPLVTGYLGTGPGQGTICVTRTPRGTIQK
T1 sequence (O14842 whole entry): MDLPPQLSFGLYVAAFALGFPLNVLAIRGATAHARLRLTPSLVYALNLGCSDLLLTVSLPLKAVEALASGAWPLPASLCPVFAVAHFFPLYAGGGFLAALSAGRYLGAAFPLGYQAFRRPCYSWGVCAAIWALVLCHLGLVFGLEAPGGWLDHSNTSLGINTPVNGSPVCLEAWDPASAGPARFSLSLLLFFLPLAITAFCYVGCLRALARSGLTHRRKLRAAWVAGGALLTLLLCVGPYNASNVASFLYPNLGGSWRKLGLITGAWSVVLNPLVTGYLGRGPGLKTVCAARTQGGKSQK

Structure (SMILES): COc1ccc(F)c(-c2ccc(Cc3cccc(N4C[C@H](c5cccc(Cl)c5)C[C@@H]4CC(=O)O)c3)c(C)c2)c1
pEC50 [2]: 8.00

Structure (SMILES): CC#C[C@@H](CC(=O)O)c1ccc(OCc2ccc(CN3CCCc4cccc(OC)c43)s2)cc1
ED50 (Mus musculus): 1 mg/kg

Structure (SMILES): Cc1cc(OCCC(C)O)cc(C)c1-c1ccc(F)c(COc2cc3c(cn2)[C@@H]2C(C(=O)O)[C@@H]2C3)c1 (stereo not given in full)
pEC50 [3]: 7.89

Structure (SMILES): CC#C[C@@H](CC(=O)O)c1ccc(OCc2cccc(-c3ccc(C(F)(F)F)cc3)c2)cc1
bioavailability [5]: 67 to 100%
bioavailability [6]: 67 to 100%
bioavailability [7]: 67 to 100%
half-life [8]: 7.2 to 28 h
half-life [9]: 7.2 to 28 h
bioavailability [10]: 67 to 100%
half-life [11]: 7.2 to 28 h
half-life [12]: 7.2 to 28 h

Structure (SMILES): CC#C[C@@H](CC(=O)O)c1ccc(OCc2ccc3nc(-c4c(C)cccc4C)nn3c2)cc1
Emax [14]: 76%
ED90 (Rattus norvegicus [15]): 4.1 mg/kg
ED90 (Rattus norvegicus [16]): 5 mg/kg

Structure (SMILES): Cc1cc(OCC2CCOC2)cc(C)c1-c1cccc(COc2ccc(C3(CC(=O)O)COC3)cc2)c1 (stereo not given)
pEC50 [18]: > 7.00

Structure (SMILES): COc1ccc(C)c(N2CC[C@@H](Oc3ccc(N4N=C(C(F)(F)F)[C@@H](C)[C@@H]4CC(=O)O)cc3)[C@H](C)C2)c1
pEC50 [2]: 7.15

More lines, main results first:

pEC50 [1]: 8.00
Structure (SMILES): CC#C[C@@H](CC(=O)O)c1ccc(OCCOc2cccc(Cl)c2)cc1

pEC50 [3]: > 6.52
Structure (SMILES): Cc1cc(OC[C@H]2COC(C)(C)O2)cc(C)c1-c1cccc(COc2ccc(-c3cc(O)no3)cc2)c1C

half-life [4]: 28 to 30 h
Structure (SMILES): Cc1cc(OCCCS(C)(=O)=O)cc(C)c1-c1cccc(COc2ccc3c(c2)OC[C@H]3CC(=O)O)c1

pEC50 [1]: 6.20
Structure (SMILES): O=C(O)CCc1ccc2oc(Nc3c(Cl)c(Cl)cc(Cl)c3Cl)nc2c1

pEC50 [13]: > 8.00
Structure (SMILES): CO/N=C(\COc1ccc(COc2ccc(C(C#N)CC(=O)O)cc2)cc1)c1ccc(F)cc1 (stereo not given)

pEC50 [1]: 9.40
Structure (SMILES): CC#C[C@@H](CC(=O)O)c1ccc(NC(=O)C(=O)Nc2cccc(C(C)(C)C)c2)cc1
MED [17]: 1 mg/kg

pEC50 [3]: 6.42
Structure (SMILES): Cc1cc(OCCO)ccc1-c1cccc(COc2ccc(Cn3oc(=O)[nH]c3=O)cc2)c1

pEC50 [2]: 7.38
Structure (SMILES): CCOc1ccc(F)c(N2CC[C@@H](Oc3cnc(N4CC(OC)[C@@H](C)[C@@H]4CC(=O)O)cn3)[C@H](C)C2)c1 (stereo not given in full)

— ChEMBL document CHEMBL3867481, “GPR40 agonists for the treatment of type 2 diabetes mellitus: The biological characteristics and the chemical space” (Bioorg Med Chem Lett, 2016)
